Experimental data taken from paper PMC5772982 (Molecular cell, 2017).
pKd: −log10 of the molar value.

Target: T1, PYL1 (Arabidopsis thaliana, UniProt Q8VZS8, S119A)
T1 sequence (Q8VZS8 2-221 S119A): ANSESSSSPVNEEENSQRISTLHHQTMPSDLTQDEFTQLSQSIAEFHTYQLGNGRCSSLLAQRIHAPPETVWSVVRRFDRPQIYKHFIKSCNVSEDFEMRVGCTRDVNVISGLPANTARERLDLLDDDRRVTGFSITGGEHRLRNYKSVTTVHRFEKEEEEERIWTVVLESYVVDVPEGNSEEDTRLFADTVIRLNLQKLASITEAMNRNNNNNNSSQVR
Assay: microscale thermophoresis
Assay type: binding

## CC1=CC(=O)CC(C)(C)[C@@]1(O)/C=C/C(C)=C\C(=O)O [Abscisic Acid]
  pKd: 3.66
